According to patent US12583826B2, “[(1,5-diphenyl-1H-1,2,4-triazol-3-yl)oxy]acetic acid derivatives and salts thereof, crop protection compositions comprising them, methods for producing them and use thereof as safeners” (Bayer Aktiengesellschaft, priority 2019, dated 2026):

What was measured:
[1] = test system: summer wheat (TRZAS; cv. Triso); assay: Absolute action: reduction of damage by mesosulfuron-methyl on summer wheat, greenhouse post-emergence; format: in vivo; details: for Absolute reduction in herbicide damage (damage without safener minus damage with safener): mesosulfuron-methyl 20 g/ha; for Herbicide damage with compound of the formula (I): then mesosulfuron-methyl 20 g/ha, visual 0-100% scale, 14-21 days after application
Experimental: (§1) 2.1 Absolute Action of Selected Compounds of the Invention Using the Example of Reduction of Damage by Mesosulfuron-Methyl on Summer Wheat (TRZAS) The seeds of the crop plants to be treated are laid out in sandy loam in wood fiber or plastic pots (diameter ˜4 cm), covered with soil and grow in a greenhouse under good conditions for germination and growth. The trial plants were treated at the early leaf stage (BBCH10—BBCH12). In the course of this, the inventive compounds of the general formula (I) formulated in the form of wettable powders (WP) were sprayed onto the above-ground parts of the plants as an aqueous suspension with a water application rate corresponding to 800 l/ha with addition of wetting agent (e.g. 0.2% agrotin) in the specified dose. This was followed by the application of the herbicide. For this purpose, mesosulfuron-methyl, formulated in the form of water-dispersible granules (WG), was sprayed onto the above-ground parts of the plants in the form of an aqueous dispersion with a water application rate corresponding to 800 l/ha with addition of wetting agent (e.g. 0.2% agrotin) in a dose of 20 g/ha. The dose of the herbicide was chosen here such that it causes visually apparent damage (min. 30%, max. 75%) compared to untreated crop plants at the evaluation time on a control group of crop plants without safener treatment that were included in the same trial. After application, the plants were cultivated under good growth conditions in a greenhouse. The damage was visually assessed 14-21 days after application. The damage effect was assessed visually on a scale of 0-100% by comparison with untreated control plants, and averaged over 2-3 repeats per treatment. Examples: • 0%=no noticeable effect compared to the untreated plant • 20%=the treated plant population has 20% damage compared to the untreated control population (e.g. growth height, leaf damage, etc.) • 100%=treated plants completely damaged/killed.

[2] = test system: summer barley (HORVS; cv. Montoya); assay: Absolute action: reduction of damage by mesosulfuron-methyl on summer barley, greenhouse post-emergence; format: in vivo; details: for Absolute reduction in damage (difference): mesosulfuron-methyl 20 g/ha, damage without minus with safener; for Herbicide damage with compound of the formula (I) (%): then mesosulfuron-methyl 20 g/ha, visual 0-100% scale, 14-21 days after application
Experimental: as §1, with “2.2 Absolute Action” for “2.1 Absolute Action”, “on Summer Barley (HORVS) The seeds” for “on Summer Wheat (TRZAS) The seeds”, “treated are aid out in” for “treated are laid out in”, “soil and grown in a” for “soil and grow in a”, “leaf stage (BBCE10-BBCH12). In the” for “leaf stage (BBCH10—BBCH12). In the”, “control population (e.g.: growth height,” for “control population (e.g. growth height,”

COC(=O)COc1nc(-c2ccc(Cl)cc2F)n(-c2ccccc2F)n1 [I.46-2] was tested, and the “Absolute reduction in herbicide damage (damage without safener minus damage with safener)” value ([1]; safener 125 g a.i./ha) was 46%, the “Herbicide damage with compound of the formula (I)” value ([1]; safener 125 g a.i./ha) was 7% and the “Absolute reduction in damage (difference)” value ([2]; safener 125 g a.i./ha) was 23%. The “Herbicide damage with compound of the formula (I) (%)” value (“Herbicide damage with compound … (%)” below) ([2]; safener 125 g a.i./ha) was 37%, the “Absolute reduction in damage (difference)” value ([2]; safener 500 g a.i./ha) was 33% and the “Herbicide damage with compound … (%)” value ([2]; safener 500 g a.i./ha) was 27%.

With CCOC(=O)COc1nc(-c2ccccc2)n(-c2ccc(F)cc2)n1 [I.2-4] the “Absolute reduction in herbicide damage (damage without safener minus damage with safener)” value ([1]; safener 1000 g/ha) was 20% and the “Herbicide damage with compound of the formula (I)” value ([1]; safener 1000 g/ha) was 30%.

In the case of COC(=O)COc1nc(-c2ccc(Cl)cc2Cl)n(-c2ccc(F)cc2F)n1 [I.43-38], the “Absolute reduction in herbicide damage (damage without safener minus damage with safener)” value ([1]; safener 125 g a.i./ha) is reported as 30%, the “Herbicide damage with compound of the formula (I)” value ([1]; safener 125 g a.i./ha) is reported as 33% and the “Absolute reduction in herbicide damage (damage without safener minus damage with safener)” value ([1]; safener 500 g a.i./ha) is reported as 33%. For the same compound, the “Herbicide damage with compound of the formula (I)” value ([1]; safener 500 g a.i./ha) was 30%, the “Absolute reduction in damage (difference)” value ([2]; safener 125 g a.i./ha) was 26% and the “Herbicide damage with compound … (%)” value ([2]; safener 125 g a.i./ha) was 37%.

For CCOC(=O)COc1nc(-c2ccc(Cl)cc2)n(-c2ccccc2)n1 [I.20-1], the “Absolute reduction in herbicide damage (damage without safener minus damage with safener)” value ([1]; safener 250 g/ha) was 30%, the “Herbicide damage with compound of the formula (I)” value ([1]; safener 250 g/ha) was 13% and the “Absolute reduction in herbicide damage (damage without safener minus damage with safener)” value ([1]; safener 1000 g/ha) was 36%. The “Herbicide damage with compound of the formula (I)” value ([1]; safener 1000 g/ha) was 7%.

O=C(O)COc1nc(-c2ccccc2)n(-c2ccc(Cl)cc2)n1 [I.3-7] was tested, and the “Absolute reduction in herbicide damage (damage without safener minus damage with safener)” value ([1]; safener 250 g/ha) was 23%, the “Herbicide damage with compound of the formula (I)” value ([1]; safener 250 g/ha) was 20% and the “Absolute reduction in herbicide damage (damage without safener minus damage with safener)” value ([1]; safener 1000 g/ha) was 33%. For the same compound, the “Herbicide damage with compound of the formula (I)” value ([1]; safener 1000 g/ha) was 10%, the “Absolute reduction in damage (difference)” value ([2]; safener 250 g a.i./ha) was 20% and the “Herbicide damage with compound … (%)” value ([2]; safener 250 g a.i./ha) was 40%.

In the case of O=C(O)COc1nc(-c2ccc(Cl)cc2Cl)n(-c2ccc(Cl)cc2Cl)n1 [I.45-32], the “Absolute reduction in herbicide damage (damage without safener minus damage with safener)” value ([1]; safener 125 g a.i./ha) is reported as 23%, the “Herbicide damage with compound of the formula (I)” value ([1]; safener 125 g a.i./ha) is reported as 40% and the “Absolute reduction in herbicide damage (damage without safener minus damage with safener)” value ([1]; safener 500 g a.i./ha) is reported as 30%. For the same compound, the “Herbicide damage with compound of the formula (I)” value ([1]; safener 500 g a.i./ha) was 33%.

In the case of O=C(O)COc1nc(-c2ccccc2)n(-c2ccc(F)cc2)n1 [I.3-4], the “Absolute reduction in herbicide damage (damage without safener minus damage with safener)” value ([1]; safener 250 g/ha) is reported as 20%, the “Herbicide damage with compound of the formula (I)” value ([1]; safener 250 g/ha) is reported as 30% and the “Absolute reduction in herbicide damage (damage without safener minus damage with safener)” value ([1]; safener 1000 g/ha) is reported as 27%. For the same compound, the “Herbicide damage with compound of the formula (I)” value ([1]; safener 1000 g/ha) was 23%.

O=C(O)COc1nc(-c2ccccc2F)n(-c2ccc(Cl)cc2Cl)n1 [I.6-32] was tested, and the “Absolute reduction in damage (difference)” value ([2]; safener 250 g a.i./ha) was 20% and the “Herbicide damage with compound … (%)” value ([2]; safener 250 g a.i./ha) was 40%.

CCOC(=O)COc1nc(-c2ccccc2F)n(-c2ccc(Cl)cc2Cl)n1 [I.5-32] was tested, and the “Absolute reduction in herbicide damage (damage without safener minus damage with safener)” value ([1]; safener 1000 g/ha) was 27% and the “Herbicide damage with compound of the formula (I)” value ([1]; safener 1000 g/ha) was 30%.

With O=C(O)COc1nc(-c2ccc(Cl)cc2Cl)n(-c2ccccc2F)n1 [I.45-2] the “Absolute reduction in herbicide damage (damage without safener minus damage with safener)” value ([1]; safener 500 g a.i./ha) was 20% and the “Herbicide damage with compound of the formula (I)” value ([1]; safener 500 g a.i./ha) was 30%.

With CCOC(=O)COc1nc(-c2ccc(F)cc2)n(-c2ccc(F)cc2F)n1 [I.11-38] the “Absolute reduction in herbicide damage (damage without safener minus damage with safener)” value ([1]; safener dose not given) was 20% and the “Herbicide damage with compound of the formula (I)” value ([1]; safener dose not given) was 30%.

In the case of CCOC(=O)COc1nc(-c2ccc(F)cc2F)n(-c2ccc(F)cc2F)n1 [I.41-38], the “Absolute reduction in damage (difference)” value ([2]; safener 250 g a.i./ha) is reported as 23%, the “Herbicide damage with compound … (%)” value ([2]; safener 250 g a.i./ha) is reported as 30% and the “Absolute reduction in damage (difference)” value ([2]; safener 1000 g a.i./ha) is reported as 23%. The “Herbicide damage with compound … (%)” value ([2]; safener 1000 g a.i./ha) was 30%.
